Tests used:
[1] = test system: thrombomodulin; assay: Plasma biomarker ELISA after Flolan infusion in healthy volunteers: thrombomodulin; type: in vivo, human; settings: 4 ng/kg/min intravenously for 2 h, prolonged for several hours after ceasing the infusion
Description: (§1) Eight healthy volunteers were administered Flolan® (Prostacyclin) intravenously at a dose of 4 ng/kg/min for 2 h. Blood samples were analyzed for plasma biomarkers indicative of endothelial cell (thrombomodulin, PAI-1) and glycocalyx (syndecan-1) activation and/or damage, cellular necrosis (histone-complexed DNA fragments, HMGB1) and anticoagulation (protein C, antithrombin, TFPI) at the following time points: Before the infusion (Oh), immediately after ceasing the infusion (2 h) and then 4 h, 5 h, 6 h, 8 h and 24 h after starting the infusion. The concentration of the individual biomarkers in plasma was analyzed by commercially available ELISA kits according to the manufactures recommendations. Paired t-tests with p-values <0.05 were considered significant.

[2] = test system: whole blood platelet aggregation; assay: Whole blood impedance aggregometry (Multiplate) in healthy volunteers infused with flolan; type: in vivo, human; settings: 6 healthy volunteers, 4 ng/kg/min intravenously, after 60 and 120 min infusion
Description: (§2) Six healthy volunteers were administered flolan (Prostacycline) intravenously at a dose of 4 ng/kg/min for 2 h. Blood samples for whole blood viscoelastical assay (Thrombelastography [TEG]) and whole blood platelet aggregation (Multiplate) were obtained before infusion of Flolan, after 60 min infusion of Flolan and after 120 min infusion of Flolan.
Whole blood impedance aggregometry was analyzed by the Multiple Platelet function Analyzer (MultiPlate® analyzer). Analysis employing various platelet agonists: ASPItest (activation by arachidonic acid), COLtest (activation by collagen through the collagen receptor), TRAPtest (activation by TRAP-6 stimulates the thrombin receptor on the platelet surface and ADPtest (activation by ADP stimulates platelet activation by the ADP receptors).
MultiPlate continuously records platelet aggregation. The increase of impedance by the attachment of platelets onto the Multiplate sensors is transformed to arbitrary aggregation units (AU) and plotted against time as depicted in FIG. 2.

[3] = test system: whole blood haemostatic competence; assay: Whole blood viscoelastical assay (Thrombelastography, TEG), kaolin activated, in healthy volunteers infused with flolan; type: in vivo, human; settings: 6 healthy volunteers, 4 ng/kg/min intravenously, after 60 and 120 min infusion
Description: Six healthy volunteers were administered flolan (Prostacycline) intravenously at a dose of 4 ng/kg/min for 2 h. Blood samples for whole blood viscoelastical assay (Thrombelastography [TEG]) and whole blood platelet aggregation (Multiplate) were obtained before infusion of Flolan, after 60 min infusion of Flolan and after 120 min infusion of Flolan. With regard to the TEG assay this was performed as recommended by the manufacturer and 340 μl are mixed with 20 μl CaCl 0.2 M (final concentration 11.1 mM in the cup) and kaolin at 37° C. after which the haemostatic activity is recorded as depicted in FIG. 1.

[4] = test system: Protein C; assay: Plasma biomarker ELISA after Flolan infusion in healthy volunteers: Protein C; type: in vivo, human; settings: 4 ng/kg/min intravenously for 2 h, in the hours after ceasing the infusion
Description: as §1

[5] = test system: antithrombin; assay: Plasma biomarker ELISA after Flolan infusion in healthy volunteers: antithrombin; type: in vivo, human; settings: 4 ng/kg/min intravenously for 2 h
Description: as §1

[6] = type: in vivo
Description: Ninety-four critically ill patients admitted to the intensive care unit (ICU) underwent haemofiltration with or without concomitant Flolan (prostacycline) treatment. None of the patients were suffering from Acute Traumatic Coagulopathy nor from sequelae to cardiac arrest. Flolan was administered in a low dose in the filters to prevent these from clotting and consequently there was only a minor spill over of Flolan to the systemic circulation. The patients were retrospectively reviewed.
However, patients in the flolan group were more severely ill as evaluated by a lower platelet count at start of hemofiltration, a higher frequency of severe thrombocytopenia, a higher frequency of DIC diagnoses, a higher maximum SOFA score and a higher SOFA score at hemofiltration initiation as compared to the patients receiving non-flolan.

[7] = Blood pressure and heart rate during intravenous flolan infusion in healthy volunteers; type: in vivo, human; settings: 4 ng/kg/min intravenously for 2 h, any time point
Description: as §2

[8] = test system: PAI-1; assay: Plasma biomarker ELISA after Flolan infusion in healthy volunteers: PAI-1; type: in vivo, human; settings: 4 ng/kg/min intravenously for 2 h
Description: as §1

With CCCCC[C@H](O)/C=C/[C@@H]1[C@H]2C/C(=C/CCCC(=O)O)O[C@H]2C[C@H]1O [Flolan, epoprostenol sodium] the “circulating level of thrombomodulin” value [1] was “marked decrease”, the “Multiplate values (agonists ASPI, COL, ADP, TRAP), baseline vs. during infusion” value [2] was “no significant difference” and the “TEG values (R, Angle, MA), baseline vs. during infusion” value [3] was “No significant difference”. For the same molecule, the “circulating level of Protein C” value [4] was “decreased”, the “circulating level of antithrombin” value [5] was “decreased” and the “mortality at 30 days” value ([6]; ICU patients, low dose Flolan in the haemofiltration filters, vs. 39% non-flolan, p=0.12) was 21%. The 90 day mortality ([6]; ICU patients, low dose Flolan in the haemofiltration filters, vs. 53% non-flolan, p=0.10) was 34%, the “mortality at 365 days” value ([6]; ICU patients, low dose Flolan in the haemofiltration filters, vs. 57% non-flolan, p=0.09) was 38% and the “Platelet count (difference before vs. after haemofiltration)” value ([6]; human, in vivo) was “+14”. The “haemostatic competence as evaluated by transfusion requirements” value ([6]; human, in vivo) was “does not negatively influence”, the “total transfusion requirements and specifically of FFP during hemofiltration” value ([6]; human, in vivo) was “increased total transfusion requirements” and the “blood pressure, change from baseline” value [7] was “did not change”. For the same molecule, the “heart rate, change from baseline” value [7] was “did not change” and the “circulating level of PAI-1” value [8] was “declined”.
